pIC50: −log10 of the molar value. Like-named read-outs stand apart in the source and are kept apart here.
Experiments:
leukemia cell line NB-4 = assay: GI50 and LC50 by NCI method, NB-4; type: cell-based; details: 48 hours, Cell Titer-Blue; for GI50: read-out: NB4 GI50; for LC50 (median lethal concentration): read-out: NB4 LC50
Method: (§1) The median growth inhibitory concentration (GI50) and median lethal concentration (LC50) were determined by NCI method. Leukemia cell strains MV4-11, HL60, PL21, KASUMI-1, MONO-MAC-1 and NB-4 were cultured in an Iscove's Modified Dulbecco Medium (IMDM) containing 10% fetal bovine serum, were inoculated into a 96-well cell culture plate at a density of 10,000 cells/100 μL and cultured overnight. 6 wells were selected as Tz wells, 0.125 mg/mL Cell Titer-Blue dye was added, and the cells were cultured for 4 hours and then the fluorescence intensity at […] (excitation wavelength/emission wavelength) was read. Compounds of different concentrations were added to the remaining wells, and a 100% control group was set. After 48 hours of cultivation, 0.125 mg/mL Cell Titer-Blue dye was added and the fluorescence intensity at […] was read after 4 hours. The fluorescence intensity of the dosing group was represented by Ti, the fluorescence intensity of the 100% control group was represented by C, and the fluorescence intensity before dosing was represented by Tz.
(§2) If Ti≥Tz, the formula [(Ti−Tz)/(C−Tz)]×100 was used.
(§3) If Ti<Tz, the formula [(Ti−Tz)/Tz]×100 was used.
(§4) The GI50 and LC50 values of some compounds on leukemia cell strains MV4-11, HL60, PL21, KASUMI-1, MONO-MAC-1 and NB-4 are shown in FIG. 1, Table 3, FIG. 2, and Table 4.

[1] = test system: leukemia cell line KASUMI-1; assay: GI50 and LC50 by NCI method, KASUMI-1; type: cell-based; details: Homo sapiens, 48 hours, Cell Titer-Blue
Method: as §1, §2, §3, §4

leukemia cell line PL21 = assay: GI50 and LC50 by NCI method, PL21; type: cell-based; details: PL-21; 48 hours, Cell Titer-Blue
Method: as §1, §2, §3, §4

HDAC1 = HDAC1 (Homo sapiens (Human), UniProt Q13547); assay: Inhibitory activity on HDAC1 (fluorescence enzyme assay); details: read-out: IC50 HDAC1; mean of three independent experiments
HDAC1, sequence (Q13547 whole entry, species assumed): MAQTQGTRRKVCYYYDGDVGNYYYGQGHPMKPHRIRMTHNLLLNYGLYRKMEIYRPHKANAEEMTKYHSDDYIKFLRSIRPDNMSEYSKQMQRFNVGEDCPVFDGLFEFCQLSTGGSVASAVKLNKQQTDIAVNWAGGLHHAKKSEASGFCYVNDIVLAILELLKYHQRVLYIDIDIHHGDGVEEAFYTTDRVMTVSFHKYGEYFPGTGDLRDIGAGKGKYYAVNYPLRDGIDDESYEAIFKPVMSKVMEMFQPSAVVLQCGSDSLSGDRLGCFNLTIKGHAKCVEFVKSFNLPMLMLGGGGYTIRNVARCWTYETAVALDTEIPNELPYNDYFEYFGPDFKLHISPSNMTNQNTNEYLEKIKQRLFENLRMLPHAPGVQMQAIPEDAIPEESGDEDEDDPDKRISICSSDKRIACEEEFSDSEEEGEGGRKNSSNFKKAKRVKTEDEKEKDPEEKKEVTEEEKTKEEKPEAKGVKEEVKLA

[2] = test system: leukemia cell line MONO-MAC-1; assay: GI50 and LC50 by NCI method, MONO-MAC-1; type: cell-based; details: 48 hours, Cell Titer-Blue
Method: as §1, §2, §3, §4

NAMPT = NAMPT (Homo sapiens (Human), UniProt P43490); assay: Inhibitory activity on NAMPT; type: biochemical; details: for pIC50: mean of three independent experiments
NAMPT, sequence (P43490 whole entry, species assumed): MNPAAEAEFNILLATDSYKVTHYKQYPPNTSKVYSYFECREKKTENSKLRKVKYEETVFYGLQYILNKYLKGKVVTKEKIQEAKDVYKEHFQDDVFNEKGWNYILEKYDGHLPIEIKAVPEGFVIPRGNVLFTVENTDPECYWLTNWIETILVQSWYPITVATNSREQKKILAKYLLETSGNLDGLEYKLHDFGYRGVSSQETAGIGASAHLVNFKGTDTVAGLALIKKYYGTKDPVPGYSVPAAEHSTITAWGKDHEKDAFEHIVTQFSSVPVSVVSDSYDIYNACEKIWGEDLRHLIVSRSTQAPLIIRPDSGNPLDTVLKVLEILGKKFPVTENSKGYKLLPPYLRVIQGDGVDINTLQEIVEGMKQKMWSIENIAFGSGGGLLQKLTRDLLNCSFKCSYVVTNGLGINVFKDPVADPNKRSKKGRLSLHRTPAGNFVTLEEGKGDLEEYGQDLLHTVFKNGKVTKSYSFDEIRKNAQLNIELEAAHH

[3] = test system: acute myelogenous leukemia cells HL60; assay: GI50 and LC50 by NCI method, HL60; type: cell-based; details: for CC50 / GI50: Homo sapiens, HL-60, 48 hours, Cell Titer-Blue
Method: as §1, §2, §3, §4

HDAC2 = HDAC2 (Homo sapiens (Human), UniProt Q92769); assay: Inhibitory activity on HDAC2 (fluorescence enzyme assay); details: read-out: IC50 HDAC2; mean of three independent experiments
HDAC2, sequence (Q92769 whole entry, species assumed): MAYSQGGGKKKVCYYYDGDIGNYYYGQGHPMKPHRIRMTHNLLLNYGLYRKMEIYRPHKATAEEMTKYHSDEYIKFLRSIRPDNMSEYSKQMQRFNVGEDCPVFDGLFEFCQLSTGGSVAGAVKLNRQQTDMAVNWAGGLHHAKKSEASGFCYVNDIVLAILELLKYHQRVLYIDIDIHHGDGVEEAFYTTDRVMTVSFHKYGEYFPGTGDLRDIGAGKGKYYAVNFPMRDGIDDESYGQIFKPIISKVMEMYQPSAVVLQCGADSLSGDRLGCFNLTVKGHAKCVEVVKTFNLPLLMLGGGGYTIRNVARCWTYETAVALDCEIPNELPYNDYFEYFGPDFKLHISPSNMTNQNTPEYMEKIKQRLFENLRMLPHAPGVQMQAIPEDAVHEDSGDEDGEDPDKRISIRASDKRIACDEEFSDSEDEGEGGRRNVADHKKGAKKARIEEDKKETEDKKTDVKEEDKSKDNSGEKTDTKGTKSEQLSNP

[4] = test system: acute myelogenous leukemia cells MV4-11; assay: GI50 and LC50 by NCI method, MV4-11; type: cell-based; details: Homo sapiens, 48 hours, Cell Titer-Blue
Method: as §1, §2, §3, §4

HDAC3 = HDAC3 (Homo sapiens (Human), UniProt O15379); assay: Inhibitory activity on HDAC3 (fluorescence enzyme assay); details: read-out: IC50 HDAC3; mean of three independent experiments
HDAC3, sequence (O15379 whole entry, species assumed): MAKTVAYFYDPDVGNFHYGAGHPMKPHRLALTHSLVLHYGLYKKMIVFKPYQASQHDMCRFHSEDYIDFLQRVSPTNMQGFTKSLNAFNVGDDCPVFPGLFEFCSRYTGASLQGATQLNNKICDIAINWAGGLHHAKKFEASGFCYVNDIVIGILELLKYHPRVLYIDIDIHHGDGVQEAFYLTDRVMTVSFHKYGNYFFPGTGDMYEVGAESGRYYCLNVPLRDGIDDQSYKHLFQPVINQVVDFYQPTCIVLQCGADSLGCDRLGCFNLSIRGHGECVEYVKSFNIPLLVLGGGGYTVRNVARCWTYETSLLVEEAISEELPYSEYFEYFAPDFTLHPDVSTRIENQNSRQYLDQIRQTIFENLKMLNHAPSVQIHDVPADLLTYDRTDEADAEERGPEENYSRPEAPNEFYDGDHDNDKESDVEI
HDAC3, sequence (Q9Y618 395-489 partner, species assumed): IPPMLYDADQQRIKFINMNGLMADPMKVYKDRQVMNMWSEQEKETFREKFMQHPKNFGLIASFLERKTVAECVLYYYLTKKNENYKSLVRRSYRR

cell death = assay: NMN reversal of cell death caused by compounds (FIG. 4); type: cell-based; details: NMN is nicotinamide mononucleotide
[5] = Pharmacokinetic properties in mice; type: in vivo; details: for F: po 20 mg/kg vs iv 5 mg/kg; for half-life: read-out: t½ (converted)
MV4-11 tumor = assay: In vivo anti-leukemia activity, MV4-11 tumor bearing model; details: MV4-11 tumor bearing nude mice; 4 mg/kg/d, day 23; panobinostat intraperitoneal
HCT116 tumor = assay: In vivo anti-colon cancer activity, HCT116 tumor bearing model; parameters: species or system nude mice
[6] = po 50 mg/kg, literature (BMC 2007, 21, 184-189); cited from earlier work
[7] = mouse, plasma, po 20 mg/kg single dose
[8] = mouse, plasma, po 20 mg/kg single dose, read-out: Cmax
[9] = HCT116 tumor bearing nude mice, LEE17 orally 8 mg/kg/d

SMILES | GI50 (leukemia cell line NB-4) | GI50 [1] | GI50 (leukemia cell line PL21) | pIC50 (HDAC1) | CC50 [2] | GI50 [2] | CC50 [3] | GI50 [3] | pIC50 (HDAC2) | GI50 [4] | pIC50 (HDAC3) | LC50 (median lethal concentration) (leukemia cell line NB-4) | LC50 [1] | LC50 (median lethal concentration) (leukemia cell line PL21) | LC50 (median lethal concentration) [4] | AUC(0-t) [5, 7] | Tmax [5, 7] | F [5] | Relative tumor proliferation rate (T/C %) (MV4-11 tumor) | Tumor inhibitory rate (TGI %) (MV4-11 tumor) | other results
CCCNNC(=O)c1ccc(CNC(=O)/C=C/c2ccccc2)cc1 [Comparative example 1 LP411/3b, reference compound] | 19.5 nM | 17.8 nM | 523 nM | 7.93 | > 10000 nM | 16.3 nM | > 10000 nM | 121 nM | 7.02 | 66 nM |  |  |  |  |  |  |  |  |  |  | pIC50 (NAMPT): < 4.70
CCCNNC(=O)c1ccc(CNC(=O)/C=C/c2cccnc2)cc1 [LEE12, (E)-N-(4-(2-propylhydrazino-1-carbonyl)benzyl)-3-(pyridin-3-yl) acrylamide] | 22.8 nM | 13.5 nM | 259 nM | 7.60 | 9030 nM | 73.7 nM | 591 nM | 42.1 nM | 6.85 | 38.3 nM | 8.51 | 2300 nM | 285 nM | 3820 nM | 218 nM |  |  |  |  |  | inhibitory activity against NAMPT (in words) (NAMPT): micromolar level; pIC50 (NAMPT): 5.18; LC50 values in p53-null cell strain HL60 (in words) [3]: nanomolar level; effect of NMN on cell death caused by the compound (cell death): reversal effect
CCCNNC(=O)c1ccc(CNC(=O)c2cc3ccccc3[nH]2)cc1 [LEE15, N-(4-(2-propylhydrazino-1-carbonyl)benzyl)-1H-indole-2-carboxyamide] | 31.9 nM | 17.5 nM | 65.5 nM | 8.45 | > 10000 nM | 17.9 nM | > 10000 nM | 69.5 nM | 7.82 | 37.2 nM | 9.42 | > 10000 nM | 8410 nM | > 10000 nM | 58.1 nM | 128 µg·h/mL | 0.25 h | 112% | 22.4% | 81.3% | Cmax ([5]; po 20 mg/kg single dose): 38800 ng/mL; t½ ([5]; po 20 mg/kg single dose): 2.58 h
CCCNNC(=O)c1ccc(CNC(=O)c2cc3ccccc3o2)cc1 [LEE16, N-(4-(2-propylhydrazino-1-carbonyl)benzyl)benzofuran-2-carboxyamide] | 42.3 nM | 15.3 nM | 34.3 nM | 8.52 | > 10000 nM | 25.3 nM | > 10000 nM | 75.2 nM | 7.73 | 30 nM | 9.36 | > 10000 nM | 5360 nM | > 10000 nM | 57.8 nM | 129 µg·h/mL | 0.5 h | 111% | 25.4% | 78.4% | Cmax [5, 8]: 34400 ng/mL; half-life [5, 7]: 6.03 h
CCCNNC(=O)c1ccc(CNC(=O)c2cc3ccccc3s2)cc1 [LEE17, N-(4-(2-propylhydrazino-1-carbonyl)benzyl)benzo[b]thiophene-2-carboxyamide] | 51.2 nM | 25.3 nM | 74.3 nM | 8.42 | > 10000 nM | 33.2 nM | > 10000 nM | 58.7 nM | 7.77 | 20.3 nM | 9.26 | > 10000 nM | 7320 nM | > 10000 nM | 57.1 nM | 27.6 µg·h/mL | 0.25 h | 64.6% |  |  | change in the weight of the nude mice at the end of the experiment (in words) (HCT116 tumor; 8 mg/kg/d): no significant change; Relative tumor proliferation rate (T/C %) (HCT116 tumor; [9]): 14.8%; Tumor inhibitory rate (TGI %) (HCT116 tumor; [9]): 85.5%; Weight of nude mice at the end of the experiment (HCT116 tumor; [9]): 19.04 ± 1.31 g; Cmax [5, 8]: 9460 ng/mL; half-life [5, 7]: 4.46 h
CCCNNC(=O)c1ccc(CNC(=O)c2cc3cnccc3[nH]2)cc1 [LEE18, N-(4-(2-propylhydrazin-1-carbonyl)benzyl)-1H-pyrrolo[3,2-c]pyridin-2-carboxamide] | 16.5 nM | 21.4 nM | 110 nM |  | 8680 nM | 65.7 nM | 649 nM | 51.2 nM | 7.42 | 23.6 nM | 9.15 | 1560 nM | 503 nM | 2720 nM | 58.1 nM |  |  |  |  |  | LC50 values in p53-null cell strain HL60 (in words) [3]: nanomolar level; effect of NMN on cell death caused by the compound (cell death): reversal effect
Cc1[nH]c2ccccc2c1CCNCc1ccc(/C=C/C(=O)NO)cc1 [Panobinostat] |  |  |  |  |  |  |  |  |  |  |  |  |  |  |  |  |  |  | 72.9% | 18.3% | AUClast [6]: 0.126 µg·h/mL; Cmax [6]: 116 ng/mL; F [6]: 4.62%; t½ [6]: 2.9 h

Source: patent US20240327418A1, “MULTI-TARGET INHIBITOR TARGETING HDAC AND NAD SYNTHESIS AND USE OF MULTI-TARGET INHIBITOR” (OCEAN UNIVERSITY OF CHINA, priority 2021, published 2024)
